# Measurements reported in patent US20250059204A1, “FUSED BENZOISOXAZOLYL COMPOUNDS AS KAT6A INHIBITORS” (Aurigene Oncology Limited, priority 2021, published 2025).
# Molecular target: human-KAT6A (MYST domain 507-778 aa) (Homo sapiens (Human), UniProt Q92794)
# Assay: KAT6A biochemical assay (TR-FRET)
# Settings: H4 peptide 200 nM, acetyl-CoA 600 nM
# Source text: TR-FRET based method was used for assaying compounds of the present invention for KAT6A enzyme inhibitory activity. TR-FRET is homogeneous proximity assay where Europium-labelled anti-acetyl lysine antibody binds to the acetylated substrate labelled with biotin which in turn binds to streptavidin labelled APC fluorescence acceptor. Europium can transfer energy to APC in the complex and the interaction of two dye-labelled binding partners is detected by the energy transfer between a donor and an acceptor dye, and the subsequent light emission by the acceptor dye. KAT6A transfer an acetyl group from acetyl CoA to lysine amino acids of histones/target proteins. Typically, 5 μL of human-KAT6A (MYST domain 507-778 aa) in assay buffer (100 mM Tris HCl (pH 7.8), 15 mM NaCl, 1 mM EDTA, 0.01% Tween-20, 0.02% BSA, 1 mM DTT) is added to 384-well plate containing 5 μL of selected test compound in final 1% DMSO, serially diluted in 1:3 in an 8-10-point titration. The selected compound of the present invention and enzyme are incubated for 30 min at room temperature. Next, 5 μL of substrate mix containing histone H4 peptide and acetyl-CoA in assay buffer is added to the plate. The final concentrations of H4 peptide and acetyl-CoA are 200 nM and 600 nM respectively. Following 30 min reaction at room temperature, 5 μL of detection mix containing Europium labelled anti-acetyl antibody and streptavidin-APC is added to the reaction wells. The plate is further incubated for 45 min at room temperature and is read in TR-FRET mode (Ex:340 nm; Em: 615 nm and 665 nm) on a plate reader. The percent inhibition was calculated from the ratio of the fluorescence (FL) intensities [(F665/F615)×10,000) using the formula […]. IC50 values of the compounds were determined by fitting the dose-response data to sigmoidal curve fitting equation using Graph pad prism software V8.
# Chain of human-KAT6A (MYST domain 507-778 aa) (Q92794 507-778): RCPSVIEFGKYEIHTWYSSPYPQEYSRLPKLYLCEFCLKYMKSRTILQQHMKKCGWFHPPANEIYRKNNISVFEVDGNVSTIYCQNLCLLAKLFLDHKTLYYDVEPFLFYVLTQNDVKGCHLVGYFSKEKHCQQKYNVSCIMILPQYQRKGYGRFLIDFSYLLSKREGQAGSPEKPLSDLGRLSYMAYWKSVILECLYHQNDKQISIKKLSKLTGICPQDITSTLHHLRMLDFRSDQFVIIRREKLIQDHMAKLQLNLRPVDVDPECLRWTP
row,Compound,IC50 [nM]
1,"COc1cccc(OC)c1S(=O)(=O)Nc1noc2cc(Cn3cccn3)c3c(c12)OC(C)C3 (single isomer, unassigned) [Compound 22, N-(4-((1H-pyrazol-1-yl)methyl)-2-methyl-2,3-dihydrobenzofuro[7,6-d]isoxazol-8-yl)-2,6-dimethoxybenzenesulfonamide]",21
2,"COc1cccc(OC)c1S(=O)(=O)Nc1noc2cc(Cn3cccn3)c3c(c12)OC(C)C3 (single isomer, unassigned) [Compound 23, N-(4-((1H-pyrazol-1-yl)methyl)-2-methyl-2,3-dihydrobenzofuro[7,6-d]isoxazol-8-yl)-2,6-dimethoxybenzenesulfonamide]",23
3,"COCC1Cc2c(Cn3cccn3)cc3onc(NS(=O)(=O)c4c(OC)cccc4OC)c3c2O1 (single isomer, unassigned) [Compound 61, N-(4-((1H-pyrazol-1-yl)methyl)-2-(methoxymethyl)-2,3-dihydrobenzofuro[7,6-d]isoxazol-8-yl)-2,6-dimethoxybenzenesulfonamide]",280
4,"COCC1Cc2c(Cn3cccn3)cc3onc(NS(=O)(=O)c4c(OC)cccc4OC)c3c2O1 (single isomer, unassigned) [Compound 62, N-(4-((1H-pyrazol-1-yl)methyl)-2-(methoxymethyl)-2,3-dihydrobenzofuro[7,6-d]isoxazol-8-yl)-2,6-dimethoxybenzenesulfonamide]",164
5,"COc1cccc(OC)c1S(=O)(=O)Nc1noc2cc(-c3ccccc3)c3c(c12)OCC3 [Compound 1, 2,6-dimethoxy-N-(4-phenyl-2,3-dihydrobenzofuro[7,6-d]isoxazol-8-yl)benzenesulfonamide]",57
6,"COc1cccc(OC)c1S(=O)(=O)Nc1noc2cc(Cn3cccn3)c3c(c12)OCC3 [Compound 2, N-(4-((1H-pyrazol-1-yl)methyl)-2,3-dihydrobenzofuro[7,6-d]isoxazol-8-yl)-2,6-dimethoxybenzenesulfonamide]",20
7,COc1cccc(OC)c1S(=O)(=O)Nc1noc2cc(-c3ccsc3)c3c(c12)OCC3 [Compound 3],43
8,COc1cccc(OC)c1S(=O)(=O)Nc1noc2cc(-c3ccoc3)c3c(c12)OCC3 [Compound 4],29
9,COc1cccc(OC)c1S(=O)(=O)Nc1noc2cc(-c3cccs3)c3c(c12)OCC3 [Compound 6],46
10,COc1csc(-c2cc3onc(NS(=O)(=O)c4c(OC)cccc4OC)c3c3c2CCO3)c1 [Compound 7],150
11,COc1cccc(OC)c1S(=O)(=O)Nc1noc2cc(-c3ccco3)c3c(c12)OCC3 [Compound 8],43
12,COc1cccc(OC)c1S(=O)(=O)Nc1noc2cc(-c3ccc(C)o3)c3c(c12)OCC3 [Compound 9],36
13,COc1cccc(OC)c1S(=O)(=O)Nc1noc2cc(-c3scnc3C)c3c(c12)OCC3 [Compound 11],88
14,COc1cccc(OC)c1S(=O)(=O)Nc1noc2cc(-c3ccc(C)s3)c3c(c12)OCC3 [Compound 12],291
15,COc1cccc(OC)c1S(=O)(=O)Nc1noc2cc(-c3cc(C)cs3)c3c(c12)OCC3 [Compound 13],71
16,COc1cccc(OC)c1S(=O)(=O)Nc1noc2cc(-c3ccccc3)c3c(c12)OCCC3 [Compound 15],45
17,COc1cccc(OC)c1S(=O)(=O)Nc1noc2cc(-c3ccccc3)c3c(c12)OCCC3C (stereo not drawn) [Compound 17],74
18,COc1cccc(OC)c1S(=O)(=O)Nc1noc2cc(-c3ccccc3)c3c(c12)OC(C)C3 (stereo not drawn) [Compound 18],37
19,COCc1cc2onc(NS(=O)(=O)c3c(OC)cccc3OC)c2c2c1CCO2 [Compound 19],31
20,COc1cccc(OC)c1S(=O)(=O)Nc1noc2cc(C(C)n3cccn3)c3c(c12)OCC3 (stereo not drawn) [Compound 20],51
21,"COc1cccc(OC)c1S(=O)(=O)Nc1noc2cc(Cn3cccn3)c3c(c12)OC(C)C3 (stereo not drawn) [Compound 21, N-(4-((1H-pyrazol-1-yl)methyl)-2-methyl-2,3-dihydrobenzofuro[7,6-d]isoxazol-8-yl)-2,6-dimethoxybenzenesulfonamide]",19
22,COc1cc(C(F)(F)F)ccc1S(=O)(=O)Nc1noc2cc(Cn3cccn3)c3c(c12)OCC3 [Compound 31],18
23,COc1cccc(OC)c1S(=O)(=O)Nc1noc2cc(Cn3cc(C#N)cn3)c3c(c12)OCC3 [Compound 33],127
24,COc1cccc(OC)c1S(=O)(=O)Nc1noc2cc(Cn3cc(F)cn3)c3c(c12)OCC3 [Compound 34],26
25,COc1cccc(OC)c1S(=O)(=O)Nc1noc2cc(Cn3cc(Cl)cn3)c3c(c12)OCC3 [Compound 35],27
26,COc1cccc(OC)c1S(=O)(=O)Nc1noc2cc(Cn3cc(C(F)(F)F)cn3)c3c(c12)OCC3 [Compound 36],219

row,Compound,IC50 [nM]
1,COc1cccc(OC)c1S(=O)(=O)Nc1noc2cc(Cn3ccc(C(F)(F)F)n3)c3c(c12)OCC3 [Compound 37],494
2,O=S(=O)(Nc1noc2cc(Cn3cccn3)c3c(c12)OCC3)c1ccccc1OCc1ccccn1 [Compound 38],32
3,COc1cc(-n2cccn2)ccc1S(=O)(=O)Nc1noc2cc(Cn3cccn3)c3c(c12)OCC3 [Compound 39],22
4,COc1ccc(-n2cccn2)cc1S(=O)(=O)Nc1noc2cc(Cn3cccn3)c3c(c12)OCC3 [Compound 40],27
5,COc1cccc(OC)c1S(=O)(=O)Nc1noc2cc(Cn3ccnn3)c3c(c12)OCC3 [Compound 41],25
6,COC(=O)c1ccc(OC)c(S(=O)(=O)Nc2noc3cc(Cn4cccn4)c4c(c23)OCC4)c1 [Compound 42],26.6
7,COc1cc2c(cc1S(=O)(=O)Nc1noc3cc(Cn4cccn4)c4c(c13)OCC4)CCCC2 [Compound 43],12
8,COc1cc2c(cc1S(=O)(=O)Nc1noc3cc(Cn4cccn4)c4c(c13)OCC4)CCC2 [Compound 44],32.7
9,O=S(=O)(Nc1noc2cc(Cn3cccn3)c3c(c12)OCC3)c1c(Cl)cccc1Cl [Compound 45],40
10,CCc1ccc(OC)c(S(=O)(=O)Nc2noc3cc(Cn4cccn4)c4c(c23)OCC4)c1 [Compound 46],20
11,COc1cc(C(C)(C)C)ccc1S(=O)(=O)Nc1noc2cc(Cn3cccn3)c3c(c12)OCC3 [Compound 47],26
12,O=S(=O)(Nc1noc2cc(Cn3cccn3)c3c(c12)OCC3)c1c(F)cccc1F [Compound 48],30
13,COc1ccc(C(C)(C)C)cc1S(=O)(=O)Nc1noc2cc(Cn3cccn3)c3c(c12)OCC3 [Compound 49],76
14,O=S(=O)(Nc1noc2cc(Cn3cccn3)c3c(c12)OCC3)c1ccccc1OC(F)(F)F [Compound 50],70
15,O=S(=O)(Nc1noc2cc(Cn3cccn3)c3c(c12)OCC3)c1ccccc1F [Compound 51],35
16,CCOc1ccccc1S(=O)(=O)Nc1noc2cc(Cn3cccn3)c3c(c12)OCC3 [Compound 52],32
17,O=S(=O)(Nc1noc2cc(Cn3cccn3)c3c(c12)OCC3)c1ccccc1-c1ccccc1 [Compound 53],29
18,COc1cccc(OC)c1S(=O)(=O)Nc1noc2cc(-c3cccnc3)c3c(c12)OCC3 [Compound 54],158
19,COc1ccccc1S(=O)(=O)Nc1noc2cc(Cn3cccn3)c3c(c12)OCC3 [Compound 55],34
20,COc1cccc(OC)c1S(=O)(=O)Nc1noc2cc(-c3ccccc3)c3c(c12)OC(C)(C)C3 [Compound 57],135
21,COc1cccc(OC)c1S(=O)(=O)Nc1noc2cc(Cn3cccn3)c3cc(C)oc3c12 [Compound 58],21
22,COc1cccc(OC)c1S(=O)(=O)Nc1noc2cc(-c3ccccc3)c3cc(C)oc3c12 [Compound 59],35
23,"COCC1Cc2c(Cn3cccn3)cc3onc(NS(=O)(=O)c4c(OC)cccc4OC)c3c2O1 (stereo not drawn) [Compound 60, N-(4-((1H-pyrazol-1-yl)methyl)-2-(methoxymethyl)-2,3-dihydrobenzofuro[7,6-d]isoxazol-8-yl)-2,6-dimethoxybenzenesulfonamide]",99
24,"COc1ccc(C(=O)O)cc1S(=O)(=O)Nc1noc2cc(Cn3cccn3)c3c(c12)OCC3 [Compound 63, 3—(N-(4-((1H-pyrazol-1-yl)methyl)-2,3-dihydrobenzofuro[7,6-d]isoxazol-8-yl)sulfamoyl)-4-methoxybenzoic Acid]",23
25,"COc1cc(C2CC2)ccc1S(=O)(=O)Nc1noc2cc(Cn3cccn3)c3c(c12)OCC3 [Compound 65, N-(4-((1H-pyrazol-1-yl)methyl)-2,3-dihydrobenzofuro[7,6-d]isoxazol-8-yl)-4-cyclopropyl-2-methoxybenzenesulfonamide]",10
